ChEMBL document CHEMBL1201862, “PubChem BioAssay data set” (2004)
Values belong to the compound of their own block, whether it stands above or below them. The source made the active and inactive calls.

How the values were obtained:
[1] = biological target: Protein disulfide-isomerase (Homo sapiens, UniProt P07237); assay: inhibition of PDI-driven insulin aggregation – biochemical, turbidity, absorbance, cherry-picked samples, dose response (AID 602350); assay type: functional
[2] = biological target: Neuropeptides B/W receptor type 1 (Homo sapiens, UniProt P48145); assay: human NPBW1 receptor blockade, IC50 – cell-based, fluorescence, dose response, set 6, late-stage follow-up (AID 588583); assay type: functional
Neuropeptides B/W receptor type 1, sequence (P48145 whole entry): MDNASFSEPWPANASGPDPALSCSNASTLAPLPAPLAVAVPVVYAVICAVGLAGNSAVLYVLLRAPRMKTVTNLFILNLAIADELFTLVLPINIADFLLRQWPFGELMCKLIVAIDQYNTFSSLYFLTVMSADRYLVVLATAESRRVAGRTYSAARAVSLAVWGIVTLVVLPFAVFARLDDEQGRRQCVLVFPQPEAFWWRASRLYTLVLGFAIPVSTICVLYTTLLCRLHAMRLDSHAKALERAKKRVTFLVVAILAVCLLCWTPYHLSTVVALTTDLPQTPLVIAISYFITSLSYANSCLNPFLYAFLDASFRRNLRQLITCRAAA

[3] = biological target: Melanin-concentrating hormone receptor 1 (Homo sapiens, UniProt Q99705); assay: Late-stage fluorescence-based counterscreen for antagonists of the G-protein coupled receptor 7 (GPR7): cell-based dose response assay to identify antagonists of the melanin-concentrating hormone receptor 1 (MCHR1) Set 6.; assay type: functional
Melanin-concentrating hormone receptor 1, sequence (Q99705 whole entry): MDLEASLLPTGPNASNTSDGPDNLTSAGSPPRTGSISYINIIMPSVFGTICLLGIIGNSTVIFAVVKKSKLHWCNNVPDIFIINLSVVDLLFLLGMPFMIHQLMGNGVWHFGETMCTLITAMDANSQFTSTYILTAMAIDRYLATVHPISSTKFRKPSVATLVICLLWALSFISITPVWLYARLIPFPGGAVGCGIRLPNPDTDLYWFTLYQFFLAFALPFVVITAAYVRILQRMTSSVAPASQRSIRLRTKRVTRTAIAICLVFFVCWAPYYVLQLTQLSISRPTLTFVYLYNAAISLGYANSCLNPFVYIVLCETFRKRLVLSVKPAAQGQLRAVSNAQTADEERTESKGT

[4] = biological target: T1, DNA dC->dU-editing enzyme APOBEC-3A (Homo sapiens, UniProt P31941); assay: SAR analysis of small molecule inhibitors of APOBEC3A DNA Deaminase via a fluorescence-based single-stranded DNA deaminase assay.; assay type: functional; settings: read-out: IC50_Mean
T1 sequence (P31941 whole entry): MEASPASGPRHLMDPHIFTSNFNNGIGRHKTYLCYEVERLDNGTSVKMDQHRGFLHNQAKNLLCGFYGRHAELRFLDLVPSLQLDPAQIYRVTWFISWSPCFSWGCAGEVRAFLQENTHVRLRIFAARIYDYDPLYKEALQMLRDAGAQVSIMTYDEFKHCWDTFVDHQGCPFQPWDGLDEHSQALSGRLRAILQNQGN

[5] = biological target: T2, DNA dC->dU-editing enzyme APOBEC-3G (Homo sapiens, UniProt Q9HC16); assay: inhibition of APOBEC3G ssDNA deamination – biochemical, fluorescence, single-stranded DNA substrate, SAR follow-up (AID 602136); assay type: functional; settings: read-out: IC50_Mean
T2 sequence (Q9HC16 whole entry): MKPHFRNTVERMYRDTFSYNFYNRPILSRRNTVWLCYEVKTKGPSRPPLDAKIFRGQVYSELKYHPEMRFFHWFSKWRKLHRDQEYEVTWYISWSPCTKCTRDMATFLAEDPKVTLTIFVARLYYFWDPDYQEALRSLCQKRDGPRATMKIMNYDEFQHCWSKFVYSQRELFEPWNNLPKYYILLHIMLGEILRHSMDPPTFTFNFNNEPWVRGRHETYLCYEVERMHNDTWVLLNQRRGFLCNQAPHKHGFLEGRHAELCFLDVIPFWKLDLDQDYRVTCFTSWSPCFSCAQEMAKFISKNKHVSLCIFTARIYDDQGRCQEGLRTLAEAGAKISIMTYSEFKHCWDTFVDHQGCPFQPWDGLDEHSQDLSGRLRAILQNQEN

CAAX prenyl protease 2 [6] = biological target: T3, CAAX prenyl protease 2 (Saccharomyces cerevisiae S288c, UniProt Q03530); assay type: biochemical
T3 sequence (Q03530 whole entry): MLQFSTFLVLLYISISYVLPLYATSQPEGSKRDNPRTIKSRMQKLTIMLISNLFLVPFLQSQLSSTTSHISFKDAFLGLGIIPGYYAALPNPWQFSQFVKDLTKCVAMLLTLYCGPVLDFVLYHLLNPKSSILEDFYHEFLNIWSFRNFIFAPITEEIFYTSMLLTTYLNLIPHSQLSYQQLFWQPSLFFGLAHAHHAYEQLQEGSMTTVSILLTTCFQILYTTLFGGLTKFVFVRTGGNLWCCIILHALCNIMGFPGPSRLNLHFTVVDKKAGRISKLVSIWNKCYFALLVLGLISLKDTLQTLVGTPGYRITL

Cytochrome P450 3A4 = Cytochrome P450 3A4 (Homo sapiens, UniProt P08684);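 further: CYP3A4 tested as one member of a cytochrome P450 panel screen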
HEK293 [7] = assay: NOD2 signaling inhibitors in MDP-stimulated cells, cell-based, uHTS, luminescence (AID 2001); assay type: functional; settings: Homo sapiens
HEK293 [8] = assay: cells; assay type: functional, cell-based; settings: Homo sapiens
HEK293 [9] = assay: cells; assay type: functional, cell-based; settings: Homo sapiens; remark: listed apart in the source
INS1 = assay: INS-1E survival protection against cytokine death – cell-based, luminescence, retest, dose response (AID 449756); assay type: functional; settings: Rattus norvegicus;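 further: cell death triggered by IL-1 beta plus TNF-alpha plus IFN-gamma mixture; protective hits raise ATP signal compared with cytokine alone wells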
[10] = biological target: Disintegrin and metalloproteinase domain-containing protein 17 (Homo sapiens, UniProt P78536); assay: exosite inhibitors of ADAM17, dose response, biochemical (AID 743260)
Disintegrin and metalloproteinase domain-containing protein 17, sequence (P78536 whole entry, the tested form may be a part): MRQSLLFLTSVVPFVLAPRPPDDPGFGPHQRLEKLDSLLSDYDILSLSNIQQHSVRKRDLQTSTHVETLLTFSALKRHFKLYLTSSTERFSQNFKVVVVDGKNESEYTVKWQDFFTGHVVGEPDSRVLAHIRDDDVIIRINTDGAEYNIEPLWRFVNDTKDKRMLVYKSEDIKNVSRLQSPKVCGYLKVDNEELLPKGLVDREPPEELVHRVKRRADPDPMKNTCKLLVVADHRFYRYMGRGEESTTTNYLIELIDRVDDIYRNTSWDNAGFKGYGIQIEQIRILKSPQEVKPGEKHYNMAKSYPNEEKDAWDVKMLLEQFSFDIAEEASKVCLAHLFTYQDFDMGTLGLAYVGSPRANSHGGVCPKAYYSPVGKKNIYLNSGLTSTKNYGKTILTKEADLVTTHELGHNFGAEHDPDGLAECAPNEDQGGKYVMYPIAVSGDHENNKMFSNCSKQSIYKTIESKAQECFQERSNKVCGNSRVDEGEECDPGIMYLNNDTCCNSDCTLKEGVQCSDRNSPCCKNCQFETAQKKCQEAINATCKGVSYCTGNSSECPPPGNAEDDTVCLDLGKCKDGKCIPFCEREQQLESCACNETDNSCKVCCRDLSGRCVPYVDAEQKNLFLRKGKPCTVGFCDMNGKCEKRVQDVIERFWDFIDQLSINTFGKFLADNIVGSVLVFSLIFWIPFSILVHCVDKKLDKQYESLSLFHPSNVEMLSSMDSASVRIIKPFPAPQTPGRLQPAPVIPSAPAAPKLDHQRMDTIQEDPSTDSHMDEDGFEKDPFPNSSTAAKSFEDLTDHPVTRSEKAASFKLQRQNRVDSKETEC

HEK293 [11] = assay: inhibition of NOD1-driven NF-kB reporter – cell-based, luminescence, uHTS, primary screen (AID 1578); assay type: functional; settings: Homo sapiens
[12] = Luminescence Cell-Based Dose Retest to Confirm Inhibitors of Cancer Stem Cells. [Related pubchem assays (depositor defined):AID2717, AID2721]; assay type: functional; settings: Homo sapiens
[13] = inhibition of ADAM10 peptide cleavage – biochemical, FRET peptide substrate, recombinant human ADAM10, selectivity assay for ADAM17 exosite inhibitor project, dose response (AID 743259);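 further: ADAM10 enzyme cleaving a FRET peptide substrate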
[14] = toxicity toward cultured mammalian cells – cell-based, plate reader, cherry-pick samples, cytotoxicity control, dose response (AID 504397); assay type: functional
CAAX prenyl protease 2 [15] = biological target: T3, CAAX prenyl protease 2; assay: inhibition of Rce1p peptide cleavage – biochemical, plate reader, dry powder retest, dose response (AID 588851)
[16] = biological target: Inhibitor of nuclear factor kappa-B kinase subunit epsilon (Homo sapiens, UniProt Q14164); assay: Navigating the Kinome. Panel member name: IKBKE; assay type: functional
Inhibitor of nuclear factor kappa-B kinase subunit epsilon, sequence (Q14164 whole entry): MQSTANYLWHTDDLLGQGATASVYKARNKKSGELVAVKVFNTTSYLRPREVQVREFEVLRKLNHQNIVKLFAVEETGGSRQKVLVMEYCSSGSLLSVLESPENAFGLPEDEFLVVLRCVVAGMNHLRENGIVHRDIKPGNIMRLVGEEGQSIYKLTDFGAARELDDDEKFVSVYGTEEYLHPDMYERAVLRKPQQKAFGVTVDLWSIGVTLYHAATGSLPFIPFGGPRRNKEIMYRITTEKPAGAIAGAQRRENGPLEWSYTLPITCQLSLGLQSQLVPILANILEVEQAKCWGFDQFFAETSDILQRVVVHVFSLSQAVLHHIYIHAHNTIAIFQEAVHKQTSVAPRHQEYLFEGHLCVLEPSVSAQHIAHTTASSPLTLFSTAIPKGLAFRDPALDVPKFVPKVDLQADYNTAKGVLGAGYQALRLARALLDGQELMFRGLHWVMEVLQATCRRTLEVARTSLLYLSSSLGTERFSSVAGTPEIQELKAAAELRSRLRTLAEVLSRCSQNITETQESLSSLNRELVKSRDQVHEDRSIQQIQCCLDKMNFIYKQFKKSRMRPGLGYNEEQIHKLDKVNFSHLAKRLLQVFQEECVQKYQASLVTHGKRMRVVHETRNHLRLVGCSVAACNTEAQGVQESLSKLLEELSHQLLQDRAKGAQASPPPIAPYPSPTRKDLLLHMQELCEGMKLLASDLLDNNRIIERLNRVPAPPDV

[17] = biological target: Cyclin-dependent kinase 19 (Homo sapiens, UniProt Q9BWU1); assay: Navigating the Kinome. Panel member name: CDC2L6; assay type: functional
Cyclin-dependent kinase 19, sequence (Q9BWU1 whole entry): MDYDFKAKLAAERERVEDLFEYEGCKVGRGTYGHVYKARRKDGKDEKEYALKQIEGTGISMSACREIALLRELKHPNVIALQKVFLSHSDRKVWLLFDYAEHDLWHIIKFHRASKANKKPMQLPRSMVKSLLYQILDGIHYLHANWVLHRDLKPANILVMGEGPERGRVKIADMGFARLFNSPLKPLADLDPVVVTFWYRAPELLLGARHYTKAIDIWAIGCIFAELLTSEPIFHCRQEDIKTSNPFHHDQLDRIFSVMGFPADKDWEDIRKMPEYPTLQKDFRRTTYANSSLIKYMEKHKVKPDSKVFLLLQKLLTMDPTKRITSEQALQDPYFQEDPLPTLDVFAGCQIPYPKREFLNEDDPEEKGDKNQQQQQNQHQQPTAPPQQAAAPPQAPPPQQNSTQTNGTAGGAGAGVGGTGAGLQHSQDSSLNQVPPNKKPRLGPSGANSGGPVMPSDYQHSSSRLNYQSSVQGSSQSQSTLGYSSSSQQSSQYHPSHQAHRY

Melanocortin receptor 4 = Melanocortin receptor 4 (Homo sapiens, UniProt P32245); assay: inhibitors of MC4R cAMP signaling – cell-based, TR-FRET, biased antagonists, dose response (AID 602298); assay type: functional;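 further: antagonist potency against agonist-stimulated cAMP production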
[18] = cAMP pathway inhibition in counterscreen cell line – TR-FRET cAMP detection, counter-screen for MC4R biased antagonist project, dose response (AID 602305); assay type: functional, cell-based;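 further: U2OS cells stimulated with forskolin near its EC80 as the cAMP inducer; potency is for inhibition of forskolin-stimulated cAMP signaling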
[19] = biological target: Vascular endothelial growth factor receptor 2 (Homo sapiens, UniProt P35968); assay type: functional
Vascular endothelial growth factor receptor 2, sequence (P35968 whole entry): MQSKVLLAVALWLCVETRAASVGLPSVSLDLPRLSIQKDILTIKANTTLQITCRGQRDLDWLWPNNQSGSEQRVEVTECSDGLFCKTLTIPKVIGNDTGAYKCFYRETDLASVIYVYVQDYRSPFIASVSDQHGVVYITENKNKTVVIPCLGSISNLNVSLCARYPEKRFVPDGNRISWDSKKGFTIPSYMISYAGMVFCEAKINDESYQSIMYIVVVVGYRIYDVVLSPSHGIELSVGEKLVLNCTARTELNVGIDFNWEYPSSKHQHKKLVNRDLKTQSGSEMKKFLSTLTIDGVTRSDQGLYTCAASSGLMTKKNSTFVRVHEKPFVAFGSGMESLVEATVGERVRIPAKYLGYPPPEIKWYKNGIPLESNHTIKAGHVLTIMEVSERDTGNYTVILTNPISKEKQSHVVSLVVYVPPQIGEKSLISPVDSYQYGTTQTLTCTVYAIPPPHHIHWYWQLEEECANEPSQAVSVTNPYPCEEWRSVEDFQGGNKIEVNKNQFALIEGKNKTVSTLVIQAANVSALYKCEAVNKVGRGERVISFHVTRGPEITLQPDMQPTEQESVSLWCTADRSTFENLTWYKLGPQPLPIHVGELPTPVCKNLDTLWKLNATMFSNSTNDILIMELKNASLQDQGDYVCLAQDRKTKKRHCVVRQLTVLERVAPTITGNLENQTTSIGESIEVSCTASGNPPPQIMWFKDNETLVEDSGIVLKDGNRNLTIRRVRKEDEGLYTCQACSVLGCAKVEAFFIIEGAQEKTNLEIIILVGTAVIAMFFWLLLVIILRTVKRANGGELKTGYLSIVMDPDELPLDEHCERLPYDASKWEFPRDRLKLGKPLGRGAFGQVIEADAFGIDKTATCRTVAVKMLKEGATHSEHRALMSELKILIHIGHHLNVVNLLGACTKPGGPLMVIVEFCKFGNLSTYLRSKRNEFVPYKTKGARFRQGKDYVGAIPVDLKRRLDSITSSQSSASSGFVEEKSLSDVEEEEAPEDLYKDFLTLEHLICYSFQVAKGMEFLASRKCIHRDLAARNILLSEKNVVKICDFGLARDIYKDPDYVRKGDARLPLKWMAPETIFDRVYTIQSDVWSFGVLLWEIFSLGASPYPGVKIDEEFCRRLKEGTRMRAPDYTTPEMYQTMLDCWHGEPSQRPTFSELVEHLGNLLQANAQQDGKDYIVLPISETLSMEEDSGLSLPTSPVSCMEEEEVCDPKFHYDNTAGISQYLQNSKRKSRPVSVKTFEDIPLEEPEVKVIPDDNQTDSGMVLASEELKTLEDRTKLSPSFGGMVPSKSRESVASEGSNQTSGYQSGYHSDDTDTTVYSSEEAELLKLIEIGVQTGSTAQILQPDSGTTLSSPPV

Aurora kinase A = Aurora kinase A (Homo sapiens, UniProt O14965); assay type: functional;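 further: value from the Navigating the Kinome kinase panel profiling, panel entry STK6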
Aurora kinase B = Aurora kinase B (Homo sapiens, UniProt Q96GD4); assay type: functional
Aurora kinase B, sequence (Q96GD4 whole entry): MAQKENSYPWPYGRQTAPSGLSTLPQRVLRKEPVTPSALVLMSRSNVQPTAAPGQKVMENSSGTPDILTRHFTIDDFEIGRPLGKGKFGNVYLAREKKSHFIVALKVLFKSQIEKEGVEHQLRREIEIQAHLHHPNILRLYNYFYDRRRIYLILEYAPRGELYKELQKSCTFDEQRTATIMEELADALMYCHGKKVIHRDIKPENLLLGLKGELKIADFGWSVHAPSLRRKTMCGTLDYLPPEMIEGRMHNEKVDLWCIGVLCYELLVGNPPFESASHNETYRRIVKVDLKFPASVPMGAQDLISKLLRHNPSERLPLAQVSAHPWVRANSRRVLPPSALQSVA

[20] = biological target: T4, High affinity choline transporter 1 (Homo sapiens, UniProt Q9GZV3); assay: human choline transporter potentiators, potency – cell-based, 10-point CRC, membrane potential dye, dose response (AID 602376); assay type: functional
T4 sequence (Q9GZV3 whole entry): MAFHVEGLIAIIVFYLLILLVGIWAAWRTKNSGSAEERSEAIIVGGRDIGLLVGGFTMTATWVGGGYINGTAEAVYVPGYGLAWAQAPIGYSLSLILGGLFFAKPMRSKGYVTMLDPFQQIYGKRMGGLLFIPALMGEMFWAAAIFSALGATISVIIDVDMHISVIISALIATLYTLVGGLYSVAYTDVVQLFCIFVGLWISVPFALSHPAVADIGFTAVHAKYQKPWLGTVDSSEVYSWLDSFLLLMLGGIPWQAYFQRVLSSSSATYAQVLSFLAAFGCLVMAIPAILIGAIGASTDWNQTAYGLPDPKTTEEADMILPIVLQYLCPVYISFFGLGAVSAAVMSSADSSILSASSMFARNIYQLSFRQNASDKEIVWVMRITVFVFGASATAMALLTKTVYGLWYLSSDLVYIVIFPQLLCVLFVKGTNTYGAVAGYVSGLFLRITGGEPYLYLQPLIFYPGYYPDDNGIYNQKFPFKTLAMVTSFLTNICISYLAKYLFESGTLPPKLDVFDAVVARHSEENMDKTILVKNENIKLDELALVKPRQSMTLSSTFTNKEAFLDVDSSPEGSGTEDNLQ

[21] = biological target: T1, DNA dC->dU-editing enzyme APOBEC-3A; assay: SAR analysis of small molecule inhibitors of APOBEC3A DNA Deaminase via a fluorescence-based single-stranded DNA deaminase assay - Set 2.; assay type: functional; settings: read-out: IC50_Mean
[22] = biological target: T2, DNA dC->dU-editing enzyme APOBEC-3G; assay: SAR analysis of small molecule inhibitors of APOBEC3G DNA Deaminase via a fluorescence-based single-stranded DNA deaminase assay - Set 2.; assay type: functional; settings: read-out: IC50_Mean

- AC50 [1]: 19.5 µM (active)
Structure (SMILES): CN(C)S(=O)(=O)c1ccc(Cl)c(NC(=O)CSc2nnnn2-c2ccc(O)cc2)c1

- IC50 [2]: 0.915 µM (active)
- IC50 [3]: 0.915 µM (active)
Structure (SMILES): N#CC(C(=O)N1CCCC1)c1c(Cl)cnn(Cc2cccc3ccccc23)c1=O (stereo not drawn)

Structure (SMILES): COc1ccc(-c2nnc(SC(C)C(=O)Nc3nc(-c4ccc(F)c(F)c4)cs3)[nH]2)cc1 (stereo not drawn)
- IC50 [4]: > 99 µM (inactive)
- IC50 [5]: 40.5 µM (inactive)

Structure (SMILES): Cc1cc(C)n(Cc2ccc(NC(=O)c3ccc(COc4ccccc4Br)cc3)cc2)n1
- AC50 (CAAX prenyl protease 2 [6]): 1.08 µM (active)
- AC50 (Cytochrome P450 3A4): 14.1 µM (inconclusive)
- IC50 (HEK293 [7]): 4.26 µM (active)
- IC50 (HEK293 [8]): 13.2 µM (active)
- IC50 (HEK293 [9]): 4.34 µM (active)
- AC50 (INS1): 8.58 µM (active)
- IC50 [10]: > 69.5 µM (inactive)
- EC50 (HEK293 [11]): 8.42 µM (active)
- AC50 [12]: 1.56 µM (active)
- IC50 [13]: > 69.5 µM (inactive)
- AC50 [14]: 48.8 µM (active)
- AC50 (CAAX prenyl protease 2 [15]): 9.4 µM (active)

- Ki [16]: 1 µM (active)
- Ki [17]: > 100 µM (inactive)
Structure (SMILES): Nc1noc2c(CN3CCOCC3)ccc(-c3ccc(NC(=O)Nc4cc(C(F)(F)F)ccc4F)cc3)c12

Structure (SMILES): Cc1nc2c(sc3nc(N4CCOCC4)c4c(c32)CC(C)(C)OC4)c(-c2ccccc2)c1C(=O)O
- IC50 (Melanocortin receptor 4): 15.5 µM (inactive)
- AC50 [12]: 0.324 µM (active)
- IC50 [18]: > 64.6 µM (inactive)

- Ki [19]: > 5.01 µM (inactive)
- Ki (Aurora kinase A): > 2 µM (inactive)
- Ki (Aurora kinase B): 0.0794 µM (active)
Structure (SMILES): Cn1c(SC(C(=O)O)c2ccccc2)nc2ccccc2c1=O (stereo not drawn)

Structure (SMILES): CCOC(=O)c1sc(NC(=O)Cc2ccccc2OC)nc1C
- EC50 [20]: 22.4 µM (active)

Structure (SMILES): Cc1cc(C)n2nc(C(=O)NCc3ccccc3)c(Br)c2n1
- IC50 [21]: 76.8 µM (inactive)
- IC50 [22]: > 99 µM (inactive)
